{"source": "patent US20100125085A1", "about": "“PYRIDOINDOLE MODULATORS OF NMDA RECEPTOR AND ACETYLCHOLINESTERASE” (AUSPEX PHARMACEUTICALS, INC., priority 2008, published 2010)", "key": {"[1]": {"experiment": "sites of metabolism of dimebolin in humans", "assay_type": "in vivo", "conditions": "discoveries made in our laboratory and literature"}, "[2]": {"conditions": "cited from earlier work"}}, "data": [{"smiles": "Cc1ccc2c(c1)c1c(n2CCc2ccc(C)nc2)CCN(C)C1", "note": "[dimebolin, 2,8-dimethyl-5-[2-(6-methyl-pyridin-3-yl)-ethyl]-2,3,4,5-tetrahydro-1H-pyrido[4,3-b]indole]", "values": [{"measurement": "sites of metabolism", "setting": "[1]", "value": "metabolized in humans at the pyridyl methyl group, the tolyl methyl group, the ethylene linker, and the N-methyl group"}, {"measurement": "common adverse events", "setting": "[2]; >5% of patients and at least twice the incidence of placebo", "value": "dry mouth, depressed mood/depression, and hyperhidrosis"}, {"measurement": "patients reporting at least 1 serious adverse effect", "setting": "[2]; double-blind study, dimebolin group", "value": 3, "unit": "%"}, {"measurement": "patients reporting at least 1 adverse effect", "setting": "[2]; double-blind study, patients taking dimebolin", "value": 79, "unit": "%"}]}]}
